In patent US20100168231A1, “TARGET ENZYME FOR THE TREATMENT OF ACNE” (GALDERMA RESEARCH & DEVELOPMENT, priority 2007, published 2010) one finds inhibition and AC50 data, which are given here for three molecules.

The target in one test is T1, human DHRS9 (Homo sapiens, UniProt Q9BPW9).
T1 construct: expressed in transfected cells; host or cells: PALM cells (PC-3 stably co-transfected with human androgen receptor and pMMTV-neo-Luc)
The test can be described thus: Cellular model of oxidation of 3α-diol by DHRS9: inhibition of 3α-diol conversion to DHT, followed via AR transactivation (luciferase reporter) in DHRS9-transfected PALM cells. In kind it is cell-based. Conditions: read-out: inhibition of 3α-diol conversion. The text has this:
(§1) The cDNA coding for human DHRS9 was sub-cloned into a pcDNA3.1/zeo expression vector. This was then transfected into a cell line denoted PALM, standing for PC-3 Androgen receptor Luciferase MMTV. This cell line originates from PC-3 cells which have been stably co-transfected by the expression vector coding for the human androgen receptor (pSG5-puro-h androgen receptor (AR)) and by the reporter gene vector coding for luciferase (pMMTV-neo-Luc), the promoter for which has AR response elements.
(§2) The activity of conversion of 3α-diol to DHT by DHRS9 can thus be followed via AR transactivation.
On the technique in general: In a reporter assay the amount or activity of a reporter protein is the signal.

In test [1] the test system is human androgen receptor (AR). The test can be described thus: Dose-response of the 3α-diol substrate for AR transactivation in PALM cells (PC-3 Androgen receptor Luciferase MMTV). In kind it is cell-based.
From the text: as §1, §2

Read-outs that look alike come from different tables or passages of the source.

T1 sequence (Q9BPW9 18-319): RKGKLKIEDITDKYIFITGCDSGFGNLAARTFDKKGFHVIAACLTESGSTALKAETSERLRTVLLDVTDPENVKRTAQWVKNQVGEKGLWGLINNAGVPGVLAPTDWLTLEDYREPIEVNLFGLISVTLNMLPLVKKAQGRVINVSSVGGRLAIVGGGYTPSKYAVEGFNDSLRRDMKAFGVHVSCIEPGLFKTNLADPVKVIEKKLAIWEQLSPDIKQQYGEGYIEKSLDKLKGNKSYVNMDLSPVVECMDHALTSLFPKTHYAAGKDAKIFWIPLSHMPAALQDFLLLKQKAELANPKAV

For the molecule `CC(C)=CCCC(C)=CC=O` (racemic) [citral, Citral], the inhibition at 100 µM on human DHRS9 was found to be 86%.

For the molecule `C[C@]12CC[C@@H](O)C[C@@H]1CC[C@@H]1[C@@H]2CC[C@]2(C)[C@@H](O)CC[C@@H]12` [3α-diol, 3α-androstanediol], the AC50 in test [1] (cells transfected with DHRS9) came to 19 nM; in test [1] (non-transfected cells), 189 nM. In the case of `CC1(C)[C@@H](OC(=O)CCC(=O)O)CC[C@]2(C)[C@H]3C(=O)C=C4[C@@H]5C[C@@](C)(C(=O)O)CC[C@]5(C)CC[C@@]4(C)[C@]3(C)CC[C@@H]12` [carbenoxolone, Carbenoxolone], the inhibition at 100 µM at human DHRS9 (concentration of 100 μM, PALM cells transfected with DHRS9) came to 35%.

By inhibition is commonly meant the relative decrease from the control value, in per cent. Broadly, the AC50 is the concentration giving half of the maximal activity seen.
